Source: the NIST ThermoML archive (doi:10.1021/je800497u)

Test: xn = mol fraction of the nth substance listed
Conditions: 101 kPa, Liquid

CCCCCCCCCCCO [1-undecanol] + CCCO
Conditions	mass density, 293.15 K [kg/m3]	mass density, 298.15 K [kg/m3]	viscosity, 293.15 K [mPa·s]	viscosity, 298.15 K [mPa·s]
x2 = 0	832.5	829	17.18	14.02
x2 = 0.1283	830.7	827.3	15.08	12.37
x2 = 0.2079	829.6	826.2	13.44	11.11
x2 = 0.3145	827.9	824.4	11.56	9.558
x2 = 0.4057	826.1	822.6	10.06	8.394
x2 = 0.5075	824	820.5	8.321	6.998
x2 = 0.6096	821.3	817.7	6.814	5.804
x2 = 0.6937	818.7	815.1	5.634	4.823
x2 = 0.7922	815	811.4	4.399	3.808
x2 = 0.8907	810.3	806.5	3.274	2.857

CCCCCCCO [heptan-1-ol] + CCCCCCCCCO
x1 = 1
Conditions	mass density [kg/m3]	viscosity [mPa·s]
293.15 K	822.2	7.104
298.15 K	818.7	5.993

CCCCCCCCCO [nonan-1-ol] + CCCO
Conditions	mass density, 293.15 K [kg/m3]	mass density, 298.15 K [kg/m3]	viscosity, 293.15 K [mPa·s]	viscosity, 298.15 K [mPa·s]
x2 = 0	827.9	824.4	11.68	9.671
x2 = 0.0808	826.5	823.1	10.86	9.007
x2 = 0.2286	824.6	821.2	9.037	7.55
x2 = 0.3296	823.1	819.6	7.921	6.701
x2 = 0.4104	821.7	818.2	7.097	6.002
x2 = 0.5176	819.5	816	6.051	5.147
x2 = 0.6051	817.6	814	5.268	4.513
x2 = 0.6801	815.5	811.9	4.501	3.904
x2 = 0.7961	811.9	808.3	3.583	3.129
x2 = 0.8945	808.3	804.5	2.9	2.554

CCCCCO [pentan-1-ol] + CCCCCCCO
x1 = 1
Conditions	mass density [kg/m3]	viscosity [mPa·s]
293.15 K	814.6	4.029
298.15 K	811	3.494

CCCCCO [pentan-1-ol] + CCCO
Conditions	mass density, 293.15 K [kg/m3]	mass density, 298.15 K [kg/m3]	viscosity, 293.15 K [mPa·s]	viscosity, 298.15 K [mPa·s]
x2 = 0	814.6	811	4.029	3.494
x2 = 0.0959	813.7	810.1	3.825	3.325
x2 = 0.2143	812.8	809.1	3.584	3.126
x2 = 0.2969	812	808.4	3.446	3.008
x2 = 0.4097	810.9	807.2	3.214	2.828
x2 = 0.5053	809.9	806.2	3.072	2.695
x2 = 0.5963	809	805.2	2.908	2.537
x2 = 0.6924	807.8	804	2.758	2.402
x2 = 0.7892	806.6	802.8	2.582	2.283
x2 = 0.8797	805.4	801.5	2.442	2.126

CCCCCCCO [heptan-1-ol] + CCCO
Conditions	mass density, 293.15 K [kg/m3]	mass density, 298.15 K [kg/m3]	viscosity, 293.15 K [mPa·s]	viscosity, 298.15 K [mPa·s]
x2 = 0	822.2	818.7	7.104	5.993
x2 = 0.09	821.2	817.7	6.596	5.614
x2 = 0.1795	820.2	816.7	6.08	5.158
x2 = 0.3279	818.2	814.6	5.288	4.519
x2 = 0.4103	816.9	813.3	4.862	4.174
x2 = 0.5058	815.3	811.7	4.282	3.714
x2 = 0.6106	813.5	809.8	3.825	3.342
x2 = 0.6991	811.6	807.9	3.443	3.009
x2 = 0.7989	809.3	805.6	3.011	2.634
x2 = 0.8882	807	803.2	2.643	2.34

CCCCCO [pentan-1-ol] + CCCCCCCCCCCO
x1 = 1
Conditions	mass density [kg/m3]	viscosity [mPa·s]
293.15 K	814.6	4.029
298.15 K	811	3.494
